Where a name gives a salt, the structure may show the parent alone. Read-outs that look alike come from different tables or passages of the source.
Key:
Assay type in all cases: cell-based
[1] = tested on: Stenotrophomonas maltophilia (ATCC 13637); assay: MIC determination, microbroth dilution
[2] = tested on: Streptococcus pyogenes (ATCC 700294); assay: MIC determination, microbroth dilution; conditions: ATCC700294; Streptococcus pyogenes (ATCC 700294); read-out: MIC S. py.
[3] = tested on: Proteus vulgaris (ATCC 33420); assay: MIC determination, microbroth dilution; conditions: ATCC33420
[4] = tested on: Neisseria gonorrhoeae (ATCC 49226); assay: Disc diffusion assay; conditions: ATCC49226, 4 μg per disc, read-out: Zone of inhibition N.g.
[5] = tested on: Haemophilus influenza (ATCC 49247); assay: microbe, parasite or virus in culture; conditions: ATCC49247; Haemophilus influenza; 4 μg per disc; range of at least two experiments; read-out: Zone of inhibition H.i.
[6] = tested on: Escherichia coli (ATCC 700926); assay: MIC determination, microbroth dilution; conditions: ATCC700926; Escherichia coli (ATCC 700926); read-out: MIC E.c.
[7] = tested on: Burkholderia cepacia (ATCC 25416); assay: MIC determination, microbroth dilution; conditions: Burkholderia cepacia
[8] = tested on: Neisseria gonorrhoeae (ATCC 49226); assay: Agar MIC determination (Alamar Blue); conditions: ATCC49226, agar MIC, read-out: MIC N.g.
[9] = tested on: acinetobacter baumannii (ATCC 19606); assay: MIC determination, microbroth dilution; conditions: ATCC19606
[10] = tested on: MRSA, Staphylococcus aureus (NRS70); assay: MIC determination, microbroth dilution; conditions: read-out: MIC MRSA
[11] = tested on: Legionella pneumophila (ATCC 33153); assay: microbe, parasite or virus in culture; conditions: ATCC33153, 72 h, read-out: Zone of inhibition L.p.
[12] = tested on: Neisseria meningitides (ATCC 13077); assay: Disc diffusion assay; conditions: ATCC13077, 4 μg per disc, read-out: Zone of inhibition N.m.
[13] = tested on: Staphylococcus aureus (ATCC 29213); assay: MIC determination, microbroth dilution; conditions: ATCC29213; Staphylococcus aureus (ATCC 29213); read-out: MIC S.a.
[14] = tested on: Proteus mirabilis (ATCC 25933); assay: MIC determination, microbroth dilution; conditions: ATCC25933
E. coli K12 ΔtolC = assay: microbe, parasite or virus in culture; conditions: Escherichia coli, read-out: MIC E.c. Δtolc
Bacillus anthracis = assay: microbe, parasite or virus in culture; conditions: read-out: MIC B.a.
[15] = tested on: Bacillus subtilis (ATCC 23857); assay: MIC determination, microbroth dilution; conditions: ATCC23857; Bacillus subtilis (ATCC 23857); read-out: MIC B.s.
[16] = tested on: M. tuberculosis clinical isolates; assay: microbe, parasite or virus in culture; conditions: Mycobacterium tuberculosis, H37RV, read-out: MIC H37Rv
Listeria monocytogenes = assay: MIC determination (Table 6)
[17] = tested on: Enterococcus faecalis (ATCC 33186); assay: MIC determination, microbroth dilution
[18] = tested on: Klebsiella pneumoniae (ATCC 33495); assay: MIC determination, microbroth dilution; conditions: ATCC33495
Moraxella catarrhalis = assay: MIC determination (Table 6)
[19] = tested on: Bacillus anthracis, Sterne 34F2; assay: microbe, parasite or virus in culture; conditions: STERNE34F2, read-out: MIC B.a.
[20] = tested on: Streptococcus pneumoniae (R6); assay: MIC determination, microbroth dilution; conditions: read-out: MIC S. pn.
[21] = tested on: Pseudomonas aeruginosa (PA01); assay: MIC determination, microbroth dilution
[22] = ATCC13637, Stenotrophomonas maltophilia (ATCC 13637), read-out: MIC S.m.
[23] = ATCC25416, read-out: MIC B.c., Burkholderia cepacia (ATCC 25416)
[24] = ATCC25416, read-out: MIC B.c., Burkholderia cepacia, Table 6
[25] = ATCC33186, Enterococcus faecalis (ATCC 33186), read-out: MIC E.f.

SMILES	MIC [2] [µg/mL]	MIC [3] [µg/mL]	zone of inhibition at 4 µg/disc [5] [mm]	MIC [6] [µg/mL]	MIC [7, 23] [µg/mL]	MIC [7, 24] [µg/mL]	MIC [8] [µg/mL]	MIC [9] [µg/mL]	zone of inhibition at 4 µg/disc [12] [mm]	MIC [13] [µg/mL]	MIC [14] [µg/mL]	MIC (E. coli K12 ΔtolC) [µg/mL]	MIC (Bacillus anthracis) [µg/mL]	MIC [15] [µg/mL]	MIC [16] [µg/mL]	MIC (Listeria monocytogenes) [µg/mL]	MIC [18] [µg/mL]	MIC (Moraxella catarrhalis) [µg/mL]	MIC [19] [µg/mL]	MIC [21] [µg/mL]	also measured
CN[C@@H]1[C@H](O)[C@H](NC)[C@H]2O[C@]3(O)[C@H](O[C@@H]2[C@H]1O)O[C@H](C)C[C@@]3(O)CNCc1ccc(C(F)(F)F)cc1 [compound 5, 3′-(R)-3′-[(4-trifluoromethyl)benzylaminomethyl)]dihydrospectinomycin Trihydrochloride]	1.6	> 200	17 to 18	50	100	100	100	≥ 200	21	50	> 200	6.3 to 12.5	25 to 50	6.3	25	12.5	100	3.1 to 6.3	25 to 50	200	MIC [1, 22]: 25 µg/mL; zone of inhibition at 4 µg/disc [4]: 18 mm; MIC ([10]; Staphylococcus aureus (NRS70)): 25 µg/mL; zone of inhibition at 4 µg/disc [11]: 27 to 28 mm; MIC [17, 25]: 12.5 to 25 µg/mL; MIC ([20]; Streptococcus pneumoniae (R6)): 1.6 µg/mL
CN[C@@H]1[C@H](O)[C@H](NC)[C@H]2O[C@]3(O)[C@H](O[C@@H]2[C@H]1O)O[C@H](C)C[C@@]3(O)CNCc1cccnc1 [compound 7, 3′-(R)-3′-(3-pyridinylmethylaminomethyl)dihydrospectinomycin Tetrahydrobromide]	25	> 200	7	50	≥ 200	≥ 200	200	≥ 200	9	≥ 200	> 200	12.5 to 25	100	100	50 to 100	25	> 200	6.3	100	> 200	MIC [1, 22]: 100 µg/mL; zone of inhibition at 4 µg/disc [4]: 7 mm; MIC ([10]; Staphylococcus aureus (NRS70)): > 200 µg/mL; zone of inhibition at 4 µg/disc [11]: 42 mm; MIC [17, 25]: 200 µg/mL; MIC ([20]; Streptococcus pneumoniae): 12.5 to 25 µg/mL
CN[C@@H]1[C@H](O)[C@H](NC)[C@H]2O[C@]3(O)[C@H](O[C@@H]2[C@H]1O)O[C@H](C)C[C@@]3(O)CNCc1ccco1 [compound 8, 3′-(R)-3′-(2-furanylmethylaminomethyl)dihydrospectinomycin Trihydrochloride]	12.5 to 25	> 200	9	50	≥ 200	≥ 200	50	≥ 200	10	50	> 200	6.3 to 12.5	100	12.5	25	25	200	6.3	50	200	MIC ([1]; Stenotrophomonas maltophilia, ATCC13637, read-out: MIC S.m.): 6.3 to 12.5 µg/mL; zone of inhibition at 4 µg/disc [4]: 8 mm; MIC ([10]; Staphylococcus aureus (NRS70)): 200 µg/mL; zone of inhibition at 4 µg/disc [11]: 41 mm; MIC [17, 25]: 50 µg/mL; MIC ([20]; Streptococcus pneumoniae (R6)): 12.5 µg/mL
CN[C@@H]1[C@H](O)[C@H](NC)[C@H]2O[C@]3(O)[C@H](O[C@@H]2[C@H]1O)O[C@H](C)C[C@@]3(O)CNCc1ccc(Cl)cc1 [compound 18, 3′-(R)-3′-(4-Chlorobenzylaminomethyl)dihydrospectinomycin Trihydrobromide]	0.8 to 1.6	100 to 200	15 to 16	12.5 to 25	100 to 200	100 to 200	25	> 200	16 to 18	25 to 50	200	3.1 to 6.3	25	3.1	12.5	6.3	200	0.8	25	200	MIC [1, 22]: 25 µg/mL; MIC ([10]; Staphylococcus aureus): 12.5 to 25 µg/mL; zone of inhibition at 4 µg/disc [11]: 21 mm; MIC ([17]; Enterococcus faecalis, ATCC33186, read-out: MIC E.f.): 6.3 to 12.5 µg/mL; MIC ([20]; Streptococcus pneumoniae (R6)): 1.6 to 3.1 µg/mL
CN[C@@H]1[C@H](O)[C@H](NC)[C@H]2O[C@]3(O)[C@H](O[C@@H]2[C@H]1O)O[C@H](C)C[C@@]3(O)CNCc1cccc(C)n1 [compound 22, 3′-(A)-3′-[(6-Methyl)-2-pyridinylmethylamino)dihydrospectinomycin Tetrahydrobromide]	6.3	> 200	10	100 to 200	> 200	> 200	100	> 200	14	50 to 100	> 200	25	50	50	6.3	12.5	> 200	3.1	50	> 200	MIC [1, 22]: 12.5 µg/mL; zone of inhibition at 4 µg/disc [4]: 11 mm; MIC ([10]; Staphylococcus aureus (NRS70)): ≥ 200 µg/mL; MIC [17, 25]: 25 µg/mL; MIC ([20]; Streptococcus pneumoniae (R6)): 6.3 to 12.5 µg/mL

— patent publication US10266544B2, “Aryl substituted aminomethyl spectinomycin analogs as antibacterial agents” (ST. JUDE CHILDREN'S RESEARCH HOSPITAL, INC., priority 2013, dated 2019)
